Reference: publication PMC5645319, “An Integrin-Targeted, Highly Diffusive Construct for Photodynamic Therapy” (Scientific Reports, 2017)

Tests used:
OVCAR5 cells = experiment: Uptake in monolayer cell cultures, confocal fluorescence microscopy; assay type: cell-based
Procedure: (§1) All imaging experiments were carried out on an Olympus FV1000 confocal microscope with a stage-top incubator (Prior) to maintain humidity, 37 °C temperature, and 5% CO2 during imaging sessions. For each sample, imaging was restricted to 15 minutes from the time cells were removed from the incubator to avoid any artifacts related to cell death. Image acquisition parameters were chosen which captured signal from both samples/cell lines without any saturation of signal and were kept uniform between samples to allow for direct one-to-one comparison of signal. These parameters were also used to image cells treated with known concentrations of EtNBS, to allow for relative comparison of uptake against known references. For every imaging experiment and conditions, a minimum of three areas of interests were collected and analyzed.
(§2) Stably transfected OVCAR5 cells overexpressing the alpha5 integrin as well as wild-type OVCAR5 cells were plated as described above in glass-bottom 35 mm culture dishes (P35G-0.170-14-C, MatTek) at a density of 200,000 cells per dish 24 hours prior to the start of experiments. Cells were administered the photosensitizer at a concentration of 10 µM in warmed complete cell culture medium and incubated for 3 hours in a 37 °C incubator under 5% CO2. […]

[1] = Absorption spectroscopy to assess photosensitizer aggregation in water; assay type: physicochemical; conditions: for Aggregation in water by absorption spectrum: construct at 87.8 µM, compared with EtNBS in acidified methanol
Text: Spectra were acquired using a home-built spectrometer that made use of a white light source for absorption measurements and a 655 nm LED for EtNBS excitation. Transmitted or absorbed light was collected and fiber-delivered to a QE65000 spectrometer (Ocean Optics) for spectral acquisition.

monolayer OVCAR5 cells [2] = conditions: 5 µM concentration, no light; 'has been observed', no reference given; cited from earlier work
Procedure: To assess the ability of the construct to carry out PDT, monolayer OVCAR5 cells were incubated with the EtNBS construct and illuminated with 660 nm light (Fig. 7). […] This is true even though the construct is more efficient in the generation of reactive radical species. This difference in light dose between the free molecule and its targeted construct, however, is not entirely surprising; similar higher light doses have been found necessary in immunoconjugates based on the benzoporphyrin der ...

monolayer OVCAR5 cells [3] = experiment: Photodynamic therapy and dark toxicity in monolayer cultures, MTT viability assay
Procedure: (§4) The MTT assay was used to evaluate cellular viability of PDT-treated monolayer cultures. […] The MTT reagent (Thiazolyl Blue Tetrazolium Bromide, Sigma) was administered to cells in warmed complete cell culture media at a concentration of 1 mg/mL. Growth medium was gently aspirated from wells so as not to remove weakly adhered cells and was replaced with MTT media solution (160 µL). Cells were then returned cells to the 37 °C incubator and kept under 5% CO2 for 60 minutes. After incubating cells, the MTT treatment solution was carefully and completely aspirated from wells, with DMSO then added (180 µL) to extract cellular Formazan. After incubating samples for 15 minutes at room temperature while periodically rocking plates to completely and uniformly dissolve Formazan crystals, Formazan-containing DMSO was aliquoted (50 µL volumes from each well in triplicate) into a 96-well plate alongside wells containing an equal volume of DMSO to be used for background subtraction. The absorbance of Formazan at 540 nm was then measured using a SpectraMax M5 (Molecular Devices) plate reader.
(§5) After averaging measured absorbance values, background-subtraction was carried out and the standard deviation of the experimental values was calculated. For each individual sample group or treatment condition, the background-subtracted average absorbance value was normalized to that of the untreated (“NT”) control group to obtain the normalized cellular viabilities. […] All measurements were performed in triplicate to ensure high quality data collection.
(§6) All steps involving the manipulation of photosensitizers were carried out under subdued lighting to the extent that it was possible to avoid artifacts from unintentional photodynamic effects. Wells within each dish were spaced far apart from each other to ensure minimal light administration cross-talk. All manipulations of media or other culture liquids were done manually, specifically avoiding the use of vacuum aspiration techniques to avoid the unintended removal of weakly adhered cells before, during or after therapy.
(§7) Sequential blocking of integrins with cRGD peptide was achieved by administering a 10-fold excess of cRGD peptide (50 µM) in warmed DPBS to cells and incubating for a duration of 3 hours at 37 °C in a 5% CO2 incubator. Blocking solution was removed and replaced with photosensitizer-containing treatment media without performing a washing step and cells were immediately returned to the incubator for the appropriate time.
(§8) Concentrated stock solutions of photosensitizers were diluted in and administered to cells in warmed complete cell culture media. […] Integrin-dependent PDT efficacy was evaluated using 10 µM photosensitizer doses. The comparison of PEG-dependent enhancement in PDT was evaluated using 5 µM photosensitizer doses. […]

[4] = Reactive oxygen species generation, singlet oxygen sensor green (SOSG) fluorogenic assay
Procedure: (§3) HPF (H36004) and SOSG (S36002) were purchased from Life Technologies and were used as directed by the manufacturer’s protocol. Working solutions were prepared at 10 µM in DPBS or 5 µM TRIS buffer (pH 7.5) for HPF and SOSG, respectively, using 10 µM concentrations of the appropriate photosensitizer. All sample irradiation was carried out using 660 nm-centered LED-generated light (M660L3, Thorlabs) at an irradiance of 100 mW/cm^2. Irradiation of 80 µL sample volumes was carried out in clear plastic 96-well plates, with the emission of the ROS probes measured with a plate reader (SpectraMax m5, Molecular Devices). Experiments were performed in triplicate and experimental values (N = 3) were averaged and background-subtraction was performed.

[5] = test system: OVCAR5 cell line engineered to ectopically overexpress the α5 integrin; experiment: Integrin-dependent uptake in monolayer culture, confocal fluorescence microscopy; assay type: cell-based
Procedure: as §1, §2

monolayer OVCAR5 cells [6] = test system: monolayer OVCAR5 cells
Procedure: as §4, §5, §6, §7, §8

[7] = Reactive oxygen species generation, hydroxyphenyl fluorescein (HPF) fluorogenic assay; conditions: 10 µM photosensitizer, 660 nm
Procedure: as §3

CCNc1cc2sc3cc(=[N+](CC)CC)ccc-3nc2c2ccccc12.[Cl-] [EtNBS]
Photosensitizer uptake of free EtNBS relative to the construct (OVCAR5 cells; relative comparison): up to two orders of magnitude greater uptake
Aggregation in water by absorption spectrum (Supplementary Fig. 3) ([1]; 5 µM concentration): displays a blue shift
Aggregation in water by absorption spectrum [1]: formation of aggregates distorts the spectrum
Drop in viability due solely to dark toxicity (monolayer OVCAR5 cells [2]): 70%

N=C(N)NCCC[C@@H]1NC(=O)[C@H](CCCCN)NC(=O)[C@@H](Cc2ccccc2)NC(=O)[C@H](CC(=O)O)NC(=O)CNC1=O [cRGD, cRGDfK, reference compound]
Toxicity of cRGD administered solely to cells (monolayer OVCAR5 cells [3]; cRGD only, not exposed to light, MTT): did not result in any measured toxicity

DOTA-Lys(ETNBS)-Lys(PEG5K)-β-Ala-Cys(DBCO-PEG4-cRGD) (head to tail) [EtNBS construct, cRGD integrin-targeted, 5 kDa PEGylated EtNBS photodynamic therapy construct with DOTA]
ROS generation measured by SOSG versus free EtNBS ([4]; 10 µM photosensitizer, 660 nm, 100 mW/cm^2, all light doses tested (5–40 J/cm^2), triplicate): greater than that of free EtNBS
Yield of singlet oxygen (SOSG) relative to free EtNBS ([4]; equimolar 10 µM photosensitizer, 5 µM SOSG in TRIS buffer pH 7.5, 660 nm LED, 100 mW/cm^2, highest light dose (40 J/cm^2), mean of triplicate): ~100%
Uptake in alpha5 integrin overexpressing OVCAR5 versus OVCAR5 ([5]; 10 µM, 3 hours incubation, 37 °C, fluorescence excited at 635 nm, 670 nm emission): significantly greater
Uptake of PEGylated versus unPEGylated construct in overexpressing cells ([5]; alpha5 integrin overexpressing OVCAR5 cells): take up more
Reduction in viability after PDT (monolayer OVCAR5 cells [3]; 5 µM photosensitizer, 3 hour incubation, 660 nm at 100 mW/cm^2, 100 J/cm^2 light dose, MTT 24 hours post-treatment, triplicate): 60%
PDT effect after pre-incubation with free cRGD (monolayer OVCAR5 cells [3]; pre-treated with cRGD 50 µM (tenfold molar excess) 3 hours, then construct 5 µM, 100 J/cm^2 at 660 nm, MTT): protected the cells against PDT
Toxicity without light, small scale experiments (monolayer OVCAR5 cells [6]): equally harmless
Enhancement of HPF fluorescence versus free EtNBS ([7]; 10 µM HPF in DPBS, 100 mW/cm^2, dose of 50 J/cm^2, triplicate): two-fold enhancement
Photodynamic activity measured by HPF versus free EtNBS ([7]; 100 mW/cm^2, all light doses (5–100 J/cm^2), triplicate): considerably greater photodynamic activity
Photosensitizer concentration within the cells relative to administered free EtNBS (OVCAR5 cells; EtNBS references at 250 nM and 500 nM): many times lower
Aggregation in water by absorption spectrum [1]: does not show aggregation
